Results taken from US20070249620A1, “Urea Derivative” (priority 2004, published 2007).

With `CCOP(=O)(Cc1ccc(NC(=O)Nc2ccc(N3CCN(C(=O)Nc4c(C)cccc4Cl)CC3)cc2)cc1)OCC` as the compound, how does the melting point read?
Its melting point is 218 to 220 °C.

Which melting point does the source give for `COc1ccc(Cl)cc1NC(=O)Nc1ccc(N2CCN(C(=O)OC(C)(C)C)CC2)cc1` [Example 1, 4-{4-[3-(5-chloro-2-methoxy-phenyl)-ureido]-phenyl}-piperazine-1-carboxylic acid tert-butyl ester] here?
The melting point was 205 °C.

For `COc1ccc(C)cc1NC(=O)Nc1ccc(N2CCN(C(=O)OC(C)(C)C)CC2)cc1` [Example 2, 4-{4-[3-(2-methoxy-5-methyl-phenyl)-ureido]-phenyl}-piperazine-1-carboxylic acid tert-butyl ester], which melting point is on record?
Its melting point is 157 °C.

With `CC(C)(C)OC(=O)N1CCN(c2ccc(NC(=O)Nc3cccc(Oc4ccccc4)c3)cc2)CC1` [Example 3, 4-{4-[3-(3-phenoxy-phenyl)-ureido]-phenyl}-piperazine-1-carboxylic acid tert-butyl ester] as the compound, how does the melting point read?
The melting point was 172 °C.

With `CCOc1ccccc1NC(=O)Nc1ccc(N2CCN(C(=O)OC(C)(C)C)CC2)cc1` [Example 4, 4-{4-[3-(2-ethoxy-phenyl)-ureido]-phenyl}-piperazine-1-carboxylic acid tert-butyl ester] as the compound, how does the melting point read?
Its melting point is 84 °C.

Which melting point does the source give for `CC(C)(C)OC(=O)N1CCN(c2ccc(NC(=O)Nc3ccccc3[N+](=O)[O-])cc2)CC1` [Example 6, 4-{4-[3-(2-nitro-phenyl)-ureido]-phenyl}-piperazine-1-carboxylic acid tert-butyl ester] here?
Its melting point is 207 °C.

With `CC(C)(C)OC(=O)N1CCN(c2ccc(NC(=O)Nc3ccccc3Oc3ccccc3)cc2)CC1` [Example 7, 4-{4-[3-(2-phenoxy-phenyl)-ureido]-phenyl}-piperazine-1-carboxylic acid tert-butyl ester] as the compound, how does the melting point read?
The melting point was 186 to 187 °C.

For `CC(C)(C)OC(=O)N1CCN(c2ccc(NC(=O)Nc3cc(Cl)ccc3Oc3ccccc3)cc2)CC1` [Example 8, 4-{4-[3-(5-chloro-2-phenoxy-phenyl)-ureido]-phenyl}-piperazine-1-carboxylic acid tert-butyl ester], which melting point is on record?
The melting point was 94 to 96 °C.

Which melting point does the source give for `CC(C)(C)OC(=O)N1CCN(c2ccc(NC(=O)Nc3ccccc3OC(F)F)cc2)CC1` [Example 9, 4-{4-[3-(2-difluoromethoxy-phenyl)-ureido]-phenyl}-piperazine-1-carboxylic acid tert-butyl ester] here?
The melting point was 154 to 155 °C.

Which melting point does the source give for `CC(C)(C)OC(=O)N1CCN(c2ccc(NC(=O)Nc3cc(Cl)ccc3[N+](=O)[O-])cc2)CC1` [Example 10, 4-{4-[3-(5-chloro-2-nitro-phenyl)-ureido]-phenyl}-piperazine-1-carboxylic acid tert-butyl ester] here?
Its melting point is 205 °C.

With `CC(C)(C)OC(=O)N1CCN(c2ccc(NC(=O)Nc3cc(Cl)ccc3N)cc2)CC1` [Example 11, 4-{4-[3-(2-amino-5-chloro-phenyl)-ureido]-phenyl}-piperazine-1-carboxylic acid tert-butyl ester] as the compound, how does the melting point read?
Its melting point is 187 to 189 °C.

With `CC(C)(C)OC(=O)N1CCN(c2ccc(NC(=O)Nc3cc(Cl)ccc3NS(C)(=O)=O)cc2)CC1` [Example 12, 4-{4-[3-(5-chloro-2-methanesulfonylamino-phenyl)-ureido]-phenyl}-piperazine-1-carboxylic acid tert-butyl ester] as the compound, how does the melting point read?
Its melting point is 127 °C.

For `COc1ccccc1NC(=O)Nc1ccc(N2CCN(C(=O)OC(C)(C)C)CC2)cc1` [Example 13, 4-{4-[3-(2-methoxy-phenyl)-ureido]-phenyl}-piperazine-1-carboxylic acid tert-butyl ester], which melting point is on record?
The melting point was 184 °C.

With `CC(C)(C)OC(=O)N1CCN(c2ccc(NC(=O)Nc3ccccc3F)cc2)CC1` [Example 14, 4-{4-[3-(2-fluoro-phenyl)-ureido]-phenyl}-piperazine-1-carboxylic acid tert-butyl ester] as the compound, how does the melting point read?
Its melting point is 164 to 166 °C.

For `CC(C)(C)OC(=O)N1CCN(c2ccc(NC(=O)Nc3ccccc3Cl)cc2)CC1` [Example 15, 4-{4-[3-(2-chloro-phenyl)-ureido]-phenyl}-piperazine-1-carboxylic acid tert-butyl ester], which melting point is on record?
Its melting point is 196 to 197 °C.

For `Cc1ccccc1NC(=O)Nc1ccc(N2CCN(C(=O)OC(C)(C)C)CC2)cc1` [Example 16, 4-[4-(3-o-tolyl-ureido)-phenyl]-piperazine-1-carboxylic acid tert-butyl ester], which melting point is on record?
The melting point was 188 to 191 °C.

For `CCc1ccccc1NC(=O)Nc1ccc(N2CCN(C(=O)OC(C)(C)C)CC2)cc1` [Example 17, 4-{4-[3-(2-ethyl-phenyl)-ureido]-phenyl}-piperazine-1-carboxylic acid tert-butyl ester], which melting point is on record?
Its melting point is 162 °C.

For `CCCc1ccccc1NC(=O)Nc1ccc(N2CCN(C(=O)OC(C)(C)C)CC2)cc1` [Example 18, 4-{4-[3-(2-propyl-phenyl)-ureido]-phenyl}-piperazine-1-carboxylic acid tert-butyl ester], which melting point is on record?
The melting point was 177 to 181 °C.

For `Cc1ccc(C)c(NC(=O)Nc2ccc(N3CCN(C(=O)OC(C)(C)C)CC3)cc2)c1` [Example 19, 4-{4-[3-(2,5-dimethyl-phenyl)-ureido]-phenyl}-piperazine-1-carboxylic acid tert-butyl ester], which melting point is on record?
The melting point was 219 to 220 °C.

For `CN(C)c1ccc(NC(=O)Nc2ccc(N3CCN(C(=O)OC(C)(C)C)CC3)cc2)cc1` [Example 20, 4-{4-[3-(4-dimethylamino-phenyl)-ureido]-phenyl}-piperazine-1-carboxylic acid tert-butyl ester], which melting point is on record?
The melting point was 207 °C.

For `CCC(C)c1ccccc1NC(=O)Nc1ccc(N2CCN(C(=O)OC(C)(C)C)CC2)cc1` (stereo not shown) [Example 21, 4-{4-[3-(2-sec-butyl-phenyl)-ureido]-phenyl}-piperazine-1-carboxylic acid tert-butyl ester], which melting point is on record?
The melting point was 177 °C.

For `CCOc1ccc(NC(=O)Nc2ccc(N3CCN(C(=O)OC(C)(C)C)CC3)cc2)cc1` [Example 23, 4-{4-[3-(4-ethoxy-phenyl)-ureido]-phenyl}-piperazine-1-carboxylic acid tert-butyl ester], which melting point is on record?
Its melting point is 198 to 200 °C.

For `CCc1ccc(NC(=O)Nc2ccc(N3CCN(C(=O)OC(C)(C)C)CC3)cc2)cc1` [Example 24, 4-{4-[3-(4-ethyl-phenyl)-ureido]-phenyl}-piperazine-1-carboxylic acid tert-butyl ester], which melting point is on record?
The melting point was 204 to 205 °C.

With `CCC(C)c1ccc(NC(=O)Nc2ccc(N3CCN(C(=O)OC(C)(C)C)CC3)cc2)cc1` (stereo not shown) [Example 25, 4-{4-[3-(4-sec-butyl-phenyl)-ureido]-phenyl}-piperazine-1-carboxylic acid tert-butyl ester] as the compound, how does the melting point read?
Its melting point is 201 to 202 °C.

With `CCCCOc1ccc(NC(=O)Nc2ccc(N3CCN(C(=O)OC(C)(C)C)CC3)cc2)cc1` [Example 26, 4-{4-[3-(4-butoxy-phenyl)-ureido]-phenyl}-piperazine-1-carboxylic acid tert-butyl ester] as the compound, how does the melting point read?
Its melting point is 185 to 188 °C.

With `CC(C)(C)OC(=O)N1CCN(c2ccc(NC(=O)Nc3cc(C(F)(F)F)ccc3F)cc2)CC1` [Example 27, 4-{4-[3-(2-fluoro-5-trifluoromethyl-phenyl)-ureido]-phenyl}-piperazine-1-carboxylic acid tert-butyl ester] as the compound, how does the melting point read?
The melting point was 241 °C.

With `CC(C)(C)OC(=O)N1CCN(c2ccc(NC(=O)Nc3cc(C(F)(F)F)ccc3Cl)cc2)CC1` [Example 28, 4-{4-[3-(2-chloro-5-trifluoromethyl-phenyl)-ureido]-phenyl}-piperazine-1-carboxylic acid tert-butyl ester] as the compound, how does the melting point read?
The melting point was 221 to 223 °C.

For `Cc1ccc(Cl)c(NC(=O)Nc2ccc(N3CCN(C(=O)OC(C)(C)C)CC3)cc2)c1` [Example 29, 4-{4-[3-(2-chloro-5-methyl-phenyl)-ureido]-phenyl}-piperazine-1-carboxylic acid tert-butyl ester], which melting point is on record?
The melting point was 222 to 224 °C.

For `CCc1cccc(NC(=O)Nc2ccc(N3CCN(C(=O)OC(C)(C)C)CC3)cc2)c1` [Example 30, 4-{4-[3-(3-ethyl-phenyl)-ureido]-phenyl}-piperazine-1-carboxylic acid tert-butyl ester], which melting point is on record?
The melting point was 160 °C.

For `Cc1cccc(NC(=O)Nc2ccc(N3CCN(C(=O)OC(C)(C)C)CC3)cc2)c1` [Example 31, 4-[4-(3-m-tolyl-ureido)-phenyl]-piperazine-1-carboxylic acid tert-butyl ester], which melting point is on record?
Its melting point is 169 to 172 °C.

With `CC(C)(C)OC(=O)N1CCN(c2ccc(NC(=O)Nc3cccc(Cl)c3)cc2)CC1` [Example 32, 4-{4-[3-(3-chloro-phenyl)-ureido]-phenyl}-piperazine-1-carboxylic acid tert-butyl ester] as the compound, how does the melting point read?
The melting point was 163 °C.

For `CCCCc1ccc(NC(=O)Nc2ccc(N3CCN(C(=O)OC(C)(C)C)CC3)cc2)cc1` [Example 34, 4-{4-[3-(4-butyl-phenyl)-ureido]-phenyl}-piperazine-1-carboxylic acid tert-butyl ester], which melting point is on record?
Its melting point is 167 to 170 °C.

With `Cc1ccc(F)cc1NC(=O)Nc1ccc(N2CCN(C(=O)OC(C)(C)C)CC2)cc1` [Example 36, 4-{4-[3-(5-fluoro-2-methyl-phenyl)-ureido]-phenyl}-piperazine-1-carboxylic acid tert-butyl ester] as the compound, how does the melting point read?
Its melting point is 206 to 208 °C.

Which melting point does the source give for `COc1ccc(C)cc1NC(=O)Nc1ccc(N2CCN(C(=O)OC(C)(C)C)CC2)nc1` [Example 38, 4-{5-[3-(2-methoxy-5-methyl-phenyl)-ureido]-pyridin-2-yl}-piperazine-1-carboxylic acid tert-butyl ester] here?
The melting point was 185 to 186 °C.

For `CCOc1ccc(C)cc1NC(=O)Nc1ccc(N2CCN(C(=O)OC(C)(C)C)CC2)cc1` [Example 41, 4-{4-[3-(2-ethoxy-5-methyl-phenyl)-ureido]-phenyl}-piperazine-1-carboxylic acid tert-butyl ester], which melting point is on record?
The melting point was 105 to 107 °C.

With `CCOc1ccc(F)cc1NC(=O)Nc1ccc(N2CCN(C(=O)OC(C)(C)C)CC2)cc1` [Example 42, 4-{4-[3-(2-ethoxy-5-fluoro-phenyl)-ureido]-phenyl}-piperazine-1-carboxylic acid tert-butyl ester] as the compound, how does the melting point read?
The melting point was 168 to 169 °C.

Which melting point does the source give for `CCOc1ccc(Cl)cc1NC(=O)Nc1ccc(N2CCN(C(=O)OC(C)(C)C)CC2)cc1` [Example 43, 4-{4-[3-(5-chloro-2-ethoxy-phenyl)-ureido]-phenyl}-piperazine-1-carboxylic acid tert-butyl ester] here?
Its melting point is 165 to 167 °C.
